For one assay, the target named is MAGL (Mus musculus (Mouse), UniProt O35678). Put plainly: In vitro competitive activity-based protein profiling, MAGL (mouse). The class given is biochemical. To be noted: for inhibition at 1 µM: read-out: MAGL % inh. 1 μM (mouse). The procedure:
(§1) In Vitro Competitive Activity-Based Protein Profiling.
(§2) Proteomes (mouse brain membrane fraction or cell lysates for mouse assays; human prefrontal cortex or cell membrane fractions for human assays) (50 μL, 1.0 mg/mL total protein concentration) were preincubated with varying concentrations of inhibitors at 37° C. After 30 min, FP—Rh or HT-01 (1.0 μL, 50 μM in DMSO) was added and the mixture was incubated for another 30 min at 37° C. Reactions were quenched with SDS loading buffer (15 μL-4×) and run on SDS-PAGE. Following gel imaging, serine hydrolase activity was determined by measuring fluorescent intensity of gel bands corresponding to MAGL and FAAH using ImageJ 1.43u software.

The target in the next assay is FAAH (Mus musculus (Mouse), UniProt O08914). Put plainly: In vitro competitive activity-based protein profiling, FAAH (mouse). Particulars: for inhibition at 1 µM: read-out: FAAH % inh. 1 μM (mouse). The class given is biochemical. Here is the method: as §1, §2
FAAH, sequence (O08914 whole entry): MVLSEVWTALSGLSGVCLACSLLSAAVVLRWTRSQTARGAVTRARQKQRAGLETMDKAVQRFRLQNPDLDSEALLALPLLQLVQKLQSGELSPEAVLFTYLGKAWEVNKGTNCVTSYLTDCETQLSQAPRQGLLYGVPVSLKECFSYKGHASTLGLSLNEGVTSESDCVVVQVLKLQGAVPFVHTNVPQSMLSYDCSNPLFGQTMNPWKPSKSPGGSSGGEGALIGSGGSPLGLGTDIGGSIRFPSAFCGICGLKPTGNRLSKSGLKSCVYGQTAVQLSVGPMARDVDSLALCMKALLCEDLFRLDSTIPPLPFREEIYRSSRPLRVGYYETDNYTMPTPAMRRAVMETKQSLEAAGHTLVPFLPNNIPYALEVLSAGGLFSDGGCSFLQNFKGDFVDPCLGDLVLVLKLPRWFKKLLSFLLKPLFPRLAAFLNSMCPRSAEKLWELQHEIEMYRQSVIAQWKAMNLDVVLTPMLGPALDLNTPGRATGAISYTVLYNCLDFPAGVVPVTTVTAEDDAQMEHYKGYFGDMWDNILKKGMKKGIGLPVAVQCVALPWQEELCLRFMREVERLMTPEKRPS

MAGL, sequence (O35678 whole entry): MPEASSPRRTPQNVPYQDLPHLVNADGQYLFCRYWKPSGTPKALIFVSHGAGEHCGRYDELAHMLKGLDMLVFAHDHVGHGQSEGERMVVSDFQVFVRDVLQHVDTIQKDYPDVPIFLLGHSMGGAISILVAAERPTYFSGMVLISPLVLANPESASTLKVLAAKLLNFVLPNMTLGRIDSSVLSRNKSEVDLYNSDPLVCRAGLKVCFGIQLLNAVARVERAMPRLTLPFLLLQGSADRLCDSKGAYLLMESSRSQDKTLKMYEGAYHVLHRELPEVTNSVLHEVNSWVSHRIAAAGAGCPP

As to `CC(=O)N(C)c1cnn(C(=O)N2CCC3(CCN(Cc4cc(Cl)ccc4Cl)C3)C2)c1` (racemic) [Example 175, N-(1-(7-(2,5-dichlorobenzyl)-2,7-diazaspiro[4.4]nonane-2-carbonyl)-1H-pyrazol-4-yl)-N-methylacetamide], the half-inhibitory concentration (IC50) on MAGL was 100 to 1000 nM; on FAAH, at most 100 nM. In addition, the inhibition at 1 µM at MAGL and on FAAH was at least 75% in each case.

As to `CC(=O)N(C)c1cnn(C(=O)N2CCC3(CCN(Cc4cccc(C(F)(F)F)c4)C3)C2)c1` (single isomer, unassigned) [Example 65, N-methyl-N-(1-(7-(3-(trifluoromethyl)benzyl)-2,7-diazaspiro[4.4]nonane-2-carbonyl)-1H-pyrazol-4-yl)acetamide], the results for the IC50 on MAGL and on FAAH were 100 to 1000 nM and at most 100 nM, respectively. The inhibition at 1 µM on MAGL and at FAAH was at least 75% throughout.

For `CC(=O)N(C)c1cnn(C(=O)N2CCC3(CCN(Cc4cccc(C(F)(F)F)c4)C3)C2)c1` (single isomer, unassigned) [Example 66, N-methyl-N-(1-(7-(3-(trifluoromethyl)benzyl)-2,7-diazaspiro[4.4]nonane-2-carbonyl)-1H-pyrazol-4-yl)acetamide], the 50% inhibitory concentration (IC50) is 100 to 1000 nM on MAGL and at most 100 nM at FAAH.

As for `CC(=O)N(C)c1cnn(C(=O)N2CCC3(CCN(Cc4cc(Cl)ccc4Cl)C3)C2)c1` (single isomer, unassigned) [Example 176, N-(1-(7-(2,5-dichlorobenzyl)-2,7-diazaspiro[4.4]nonane-2-carbonyl)-1H-pyrazol-4-yl)-N-methylacetamide], at MAGL, the IC50 was at most 100 nM and the inhibition at 1 µM is at least 75%. Also, on FAAH, the IC50 was at most 100 nM and the inhibition at 1 µM is at least 75%.

Regarding `CC(=O)N(C)c1cnn(C(=O)N2CCC3(CCN(Cc4cc(Cl)ccc4Cl)C3)C2)c1` (single isomer, unassigned) [Example 177, N-(1-(7-(2,5-dichlorobenzyl)-2,7-diazaspiro[4.4]nonane-2-carbonyl)-1H-pyrazol-4-yl)-N-methylacetamide], the IC50 at MAGL and at FAAH was at most 100 nM throughout.

With `CC(=O)N(C)c1cnn(C(=O)N2CCC3(CCN(Cc4ccc(Cl)c(Cl)c4)C3)C2)c1` (centres unmarked) [Example 1, N-(1-(7-(3,4-dichlorobenzyl)-2,7-diazaspiro[4.4]nonane-2-carbonyl)-1H-pyrazol-4-yl)-N-methylacetamide], the results for the IC50 at MAGL and at FAAH were 100 to 1000 nM and at most 100 nM, respectively. Further, the inhibition at 1 µM at MAGL and on FAAH was at least 75% in each case.

Regarding `CC(=O)N(C)c1cnn(C(=O)N2CCC3(CCN(Cc4ccc(C(F)(F)F)cc4)C3)C2)c1` (centres unmarked) [Example 2, N-methyl-N-(1-(7-(4-(trifluoromethyl)benzyl)-2,7-diazaspiro[4.4]nonane-2-carbonyl)-1H-pyrazol-4-yl)acetamide], at MAGL, the IC50 lay in the range of 100 to 1000 nM and the inhibition at 1 µM is at least 75%. Further, on FAAH, the IC50 is 100 to 1000 nM and the inhibition at 1 µM was at least 75%.

As for `CC(=O)N(C)c1cnn(C(=O)N2CCC3(CCN(Cc4ccc(N5CCOCC5)cc4Cl)C3)C2)c1` (centres unmarked) [Example 4, N-(1-(7-(2-chloro-4-morpholinobenzyl)-2,7-diazaspiro[4.4]nonane-2-carbonyl)-1H-pyrazol-4-yl)-N-methylacetamide], the IC50 at MAGL was 100 to 1000 nM; at FAAH, at most 100 nM. The inhibition at 1 µM on MAGL and at FAAH was at least 75% throughout.

As for `CS(=O)(=O)Nc1cnn(C(=O)N2CC3CN(Cc4ccccc4Cl)CC3C2)c1` (centres unmarked) [Example 6, N-(1-(5-(2-chlorobenzyl)octahydropyrrolo[3,4-c]pyrrole-2-carbonyl)-1H-pyrazol-4-yl)methanesulfonamide], on MAGL, the concentration for half-maximal inhibition (IC50) fell in the range of 1000 to 10000 nM and the inhibition at 1 µM was in the range of 0 to 25%. In addition, on FAAH, the IC50 was in the range of 100 to 1000 nM and the inhibition at 1 µM was at least 75%.

The term IC50 denotes the midpoint of a concentration-inhibition curve. Low values mean greater potency in that assay, high ones weaker potency in that assay.

These data come from patent US10323038B2, “Pyrazole compounds and methods of making and using same” (ABIDE THERAPEUTICS, INC., priority 2015, dated 2019).
